Experiment [1] relates to eIF2α phosphorylation (eIF2•GTP•Met-tRNAi ternary complex; HRI activation). Put plainly: surrogate dual luciferase eIF2α phosphorylation (ternary complex) assay. Type of experiment: cell-based, human. The text has this: The dual luciferase expression vector and other plasmids used for these studies were previously described (see, for example, Ziegeler, G. et al. Journal of Biological Chemistry 2010, 285(20), 15408-19). The ternary complex assay, surrogate of eIF2α phosphorylation, has been described elsewhere (see, for example, Chen, T. et al. Nature Chemical Biology 2011, 7(9), 610-6). Briefly, the pBISA vector, which contains seven copies of the tetracycline-regulated transactivator response element (TRE), is flanked on both sides by minimal human cytomegalovirus (CMV) minimal promoters allowing bi-directional transcription and two MCSs (multiple cloning sites). Firefly and renilla luciferases were subcloned into MCS-I and MCS-II, respectively. This plasmid, designated pBISA-DL, transcribes two mRNAs that contain the 90 nucleotide plasmid derived 5′UTR (same sequence in both mRNAs), and the ORF encoding either firefly or renilla luciferase followed by a polyadenylation sequence. This plasmid was further modified by inserting the 5′UTR of ATF-4 mRNA into MCS-I in front of the firefly luciferase mRNA. Transcription from this unit generates an mRNA that contains the firefly luciferase ORF preceded by a 5′UTR composed of 90 nucleotides derived from the plasmid and 267 nucleotides derived from the 5′UTR of ATF-4 mRNA. Transcription from the other unit generates an mRNA that contains the renilla luciferase ORF proceeded only by the 90-nucleotide plasmid-derived sequence in the 5′UTR (pBISA-DL (ATF-4)) (see, for example, Chen, T. et al. Nature Chemical Biology 2011, 7(9), 610-6).
Cells expressing firefly and renilla luciferases were assayed with a dual glow luciferase assay kit, per manufacturer's instruction (Promega Inc., Madison, Wis.). The data calculations were carried out as the ratio of firefly to renilla luciferase signal.
A library of 1900 urea compounds was screened in the surrogate dual luciferase eIF2α phosphorylation (ternary complex) assay. This library was originally assembled and screened for inhibition of sEH by Hammock's group at UC-Davis (see, for example, Chen, T. et al. Nature Chem Biol 2011, 7, 610-616; Ziegeler, G et al. J Biol Chem 2010, 285, 15408-15419). We developed this assay in order to identify compounds that activate HRI, taking advantage of the fact that activated HRI phosphorylates eIF2α thereby reducing the amount of the eIF2•GTP•Met-tRNAi ternary complex that results in inhibition of translation of many mRNAs but paradoxically increases translation of some mRNAs that contain multiple upstream ORF (uORF) in their 5′ untranslated regions (UTRs). In our assay, firefly (F) luciferase mRNA is fused to 5′UTR of activating transcription factor 4 (ATF-4) mRNA that has multiple uORFs while renilla (R) luciferase mRNA is fused to a 5′UTR lacking any uORFs. Compounds that reduce the amount of the ternary complex, such as those activating HRI, would increase F luciferase expression while decreasing the R luciferase expression, resulting in an increased F/R luciferase ratio. To calculate the activity scores, the F/R ratios for every compound-treated wells were normalized to vehicle-treated (DMSO) wells that was arbitrarily set at 1 (F/R=1).

The test system of experiment [2] is CRL-2813 human melanoma cancer cells. The experiment is described as follows: cell proliferation (SRB) assay, CRL-2813. Particulars: cell proliferation assay, Table 2; cell line not named; read-out: IC50. Type of experiment: cell-based. As to the method:
Cells were seeded in 96-well plates and maintained for 5 days in the presence of 0.5 to 20 μM of individual compound, and cell proliferation was measured by the sulforhodamine B (SRB) assay as described previously (see, for example, Palakurthi, S. S. et al. Cancer Research 2000, 60(11), 2919-2925). Briefly, at the end of a 5-day treatment, cells were fixed in 10% cold trichloroacetic acid. Cell number was estimated by measuring the remaining bound dye of sulforhodamine B after washing. The percentage of growth was calculated by using the equation: 100×[(T−T0)/(C−T0)], where T and C represent the absorbance in treated and control cultures at Day 5, and T0 at time zero, respectively. If T is less than T0, cell death has occurred and can be calculated from 100×[(T−T0)/T0].

Broadly, the IC50 is the concentration that inhibits the measured activity by half.

On to `O=C(Nc1cccc(F)c1)N[C@H]1CC[C@H](OCc2c(F)cccc2F)CC1` [II-1m], for which the “Emax (F/R)” value is reported as 0.72 F/R in experiment [1] (7.5 μM compound), 0.77 F/R in experiment [1] (15 μM compound) and 0.67 F/R in experiment [1] (30 μM compound). Also, in experiment [2], the IC50 was more than 20 µM.
The like results for `O=C(Nc1ccccc1F)N[C@H]1CC[C@H](OCc2c(F)cccc2F)CC1` [II-1o] were, in that order, 0.96 F/R, 0.98 F/R, 0.89 F/R and more than 20 µM.
As to `O=C(Nc1cccc(Cl)c1)N[C@H]1CC[C@H](OCc2c(F)cccc2F)CC1` [II-2m], the entries for the “Emax (F/R)” value in experiment [1] (7.5 μM compound), in experiment [1] (15 μM compound) and in experiment [1] (30 μM compound) were 0.79 F/R, 0.78 F/R and 0.75 F/R, respectively. Also, the IC50 in experiment [2] is more than 20 µM.
On to `O=C(Nc1ccccc1Cl)N[C@H]1CC[C@H](OCc2c(F)cccc2F)CC1` [II-2o], for which the results for the “Emax (F/R)” value in experiment [1] (7.5 μM compound), in experiment [1] (15 μM compound) and in experiment [1] (30 μM compound) were 0.81 F/R, 0.69 F/R and 0.81 F/R, respectively. The 50% inhibitory concentration (IC50) in experiment [2] is more than 20 µM.
With `O=C(Nc1ccc(Cl)cc1)N[C@H]1CC[C@H](OCc2c(F)cccc2F)CC1` [II-2p], the “Emax (F/R)” value in experiment [1] (7.5 μM compound) turned out to be 0.95 F/R; in experiment [1] (15 μM compound), 0.96 F/R; in experiment [1] (30 μM compound), 0.74 F/R. The IC50 in experiment [2] is more than 20 µM.
The like results for `O=C(Nc1cccc(Br)c1)N[C@H]1CC[C@H](OCc2c(F)cccc2F)CC1` [II-3m] were, in that order, 1.07 F/R, 1.04 F/R, 0.98 F/R and more than 20 µM.
Turning to `O=C(Nc1ccccc1Br)N[C@H]1CC[C@H](OCc2c(F)cccc2F)CC1` [II-3o], the “Emax (F/R)” value worked out at 0.96 F/R in experiment [1] (7.5 μM compound), 0.99 F/R in experiment [1] (15 μM compound) and 0.96 F/R in experiment [1] (30 μM compound). For the same compound, the IC50 in experiment [2] was more than 20 µM.
`O=C(Nc1ccc(Br)cc1)N[C@H]1CC[C@H](OCc2c(F)cccc2F)CC1` [II-3p]: the entries for the “Emax (F/R)” value in experiment [1] (7.5 μM compound), in experiment [1] (15 μM compound) and in experiment [1] (30 μM compound) were 0.76 F/R, 0.85 F/R and 0.73 F/R, respectively. The IC50 in experiment [2] was more than 20 µM.
Regarding `O=C(Nc1cccc(I)c1)N[C@H]1CC[C@H](OCc2c(F)cccc2F)CC1` [II-4m], the “Emax (F/R)” value was 0.69 F/R in experiment [1] (7.5 μM compound), 0.75 F/R in experiment [1] (15 μM compound) and 0.72 F/R in experiment [1] (30 μM compound). In addition, the IC50 in experiment [2] is more than 20 µM.
Taken in the same sequence, the figures for `O=C(Nc1ccccc1I)N[C@H]1CC[C@H](OCc2c(F)cccc2F)CC1` [II-4o] were 0.81 F/R, 0.74 F/R, 0.81 F/R and more than 20 µM.
As to `O=C(Nc1ccc(I)cc1)N[C@H]1CC[C@H](OCc2c(F)cccc2F)CC1` [II-4p], the “Emax (F/R)” value in experiment [1] (7.5 μM compound) was 0.76 F/R; in experiment [1] (15 μM compound), 0.82 F/R; in experiment [1] (30 μM compound), 0.67 F/R. Moreover, in experiment [2], the IC50 was more than 20 µM.
The like results for `O=C(Nc1cccc(C(F)(F)F)c1)N[C@H]1CC[C@H](OCc2c(F)cccc2F)CC1` [II-5m] were, in that order, 1.13 F/R, 1.15 F/R, 1.11 F/R and more than 20 µM.
Consider `O=C(Nc1ccccc1C(F)(F)F)N[C@H]1CC[C@H](OCc2c(F)cccc2F)CC1` [II-5o], for which the “Emax (F/R)” value in experiment [1] (7.5 μM compound) turned out to be 0.95 F/R; in experiment [1] (15 μM compound), 0.80 F/R; in experiment [1] (30 μM compound) it was 0.64 F/R. Besides, the IC50 in experiment [2] was more than 20 µM.
As to `O=C(Nc1ccc(C(F)(F)F)cc1)N[C@H]1CC[C@H](OCc2c(F)cccc2F)CC1` [II-5p], the “Emax (F/R)” value in experiment [1] (7.5 μM compound) turned out to be 0.91 F/R; in experiment [1] (15 μM compound), 0.79 F/R; in experiment [1] (30 μM compound), 0.85 F/R. Moreover, the concentration for half-maximal inhibition (IC50) in experiment [2] is more than 20 µM.
`O=C(Nc1ccccc1OC(F)(F)F)N[C@H]1CC[C@H](OCc2c(F)cccc2F)CC1` [II-6o]: the entries for the “Emax (F/R)” value in experiment [1] (7.5 μM compound), in experiment [1] (15 μM compound) and in experiment [1] (30 μM compound) were 0.93 F/R, 0.93 F/R and 0.76 F/R, respectively. Moreover, the IC50 in experiment [2] was more than 20 µM.
In the case of `O=C(Nc1ccc(OC(F)(F)F)cc1)N[C@H]1CC[C@H](OCc2c(F)cccc2F)CC1` [II-6p], the “Emax (F/R)” value in experiment [1] (7.5 μM compound) was found to be 0.81 F/R; in experiment [1] (15 μM compound), 0.80 F/R; in experiment [1] (30 μM compound), 0.98 F/R. For the same compound, the 50% inhibitory concentration (IC50) in experiment [2] is more than 20 µM.
On to `Cc1cccc(NC(=O)N[C@H]2CC[C@H](OCc3c(F)cccc3F)CC2)c1` [II-7m], for which the “Emax (F/R)” value in experiment [1] (7.5 μM compound) worked out at 0.82 F/R; in experiment [1] (15 μM compound), 0.89 F/R; in experiment [1] (30 μM compound) it was 0.81 F/R. Moreover, the IC50 in experiment [2] was more than 20 µM.
Taken in the same sequence, the figures for `Cc1ccccc1NC(=O)N[C@H]1CC[C@H](OCc2c(F)cccc2F)CC1` [II-7o] were 0.78 F/R, 0.79 F/R, 0.83 F/R and more than 20 µM.
Taken in the same sequence, the figures for `Cc1ccc(NC(=O)N[C@H]2CC[C@H](OCc3c(F)cccc3F)CC2)cc1` [II-7p] were 0.81 F/R, 0.81 F/R, 0.77 F/R and more than 20 µM.
Regarding `COc1cccc(NC(=O)N[C@H]2CC[C@H](OCc3c(F)cccc3F)CC2)c1` [II-8m], the “Emax (F/R)” value in experiment [1] (7.5 μM compound) came to 0.84 F/R; in experiment [1] (15 μM compound) it was 0.97 F/R; in experiment [1] (30 μM compound), 0.74 F/R. The IC50 in experiment [2] is more than 20 µM.
Taken in the same sequence, the figures for `COc1ccccc1NC(=O)N[C@H]1CC[C@H](OCc2c(F)cccc2F)CC1` [II-8o] were 0.94 F/R, 0.88 F/R, 0.84 F/R and more than 20 µM.
`COc1ccc(NC(=O)N[C@H]2CC[C@H](OCc3c(F)cccc3F)CC2)cc1` [II-8p]: the entries for the “Emax (F/R)” value in experiment [1] (7.5 μM compound), in experiment [1] (15 μM compound) and in experiment [1] (30 μM compound) were 0.74 F/R, 0.71 F/R and 0.68 F/R, respectively. Moreover, the IC50 in experiment [2] is more than 20 µM.
The like results for `O=C(Nc1cccc([N+](=O)[O-])c1)N[C@H]1CC[C@H](OCc2c(F)cccc2F)CC1` [II-9m] were, in that order, 0.96 F/R, 0.76 F/R, 0.94 F/R and more than 20 µM.
Taken in the same sequence, the figures for `O=C(Nc1ccccc1[N+](=O)[O-])N[C@H]1CC[C@H](OCc2c(F)cccc2F)CC1` [II-9o] were 0.96 F/R, 0.90 F/R, 0.74 F/R and more than 20 µM.
Consider `O=C(Nc1ccc([N+](=O)[O-])cc1)N[C@H]1CC[C@H](OCc2c(F)cccc2F)CC1` [II-9p], for which the figures for the “Emax (F/R)” value in experiment [1] (7.5 μM compound), in experiment [1] (15 μM compound) and in experiment [1] (30 μM compound) were 0.87 F/R, 0.83 F/R and 0.83 F/R, respectively. The IC50 in experiment [2] is more than 20 µM.
As to `CSc1cccc(NC(=O)N[C@H]2CC[C@H](OCc3c(F)cccc3F)CC2)c1` [II-10m], the “Emax (F/R)” value in experiment [1] (7.5 μM compound) is 1.01 F/R; in experiment [1] (15 μM compound), 0.73 F/R; in experiment [1] (30 μM compound) it was 1.06 F/R. The IC50 in experiment [2] is more than 20 µM.
The like results for `CSc1ccccc1NC(=O)N[C@H]1CC[C@H](OCc2c(F)cccc2F)CC1` [II-10o] were, in that order, 0.82 F/R, 0.90 F/R, 0.83 F/R and more than 20 µM.
